“Also recorded” adds a separate entry of the source.
Assays:
[1] = Food Effect Study Part 2 (Cohort 5), single 500 mg dose fed vs fasted; assay type: in vivo
Protocol: The comparison will be based on Day 1, Day 2 and Day 3 PK plasma samples after the first dose of study drug on Day 1 under fast and fed conditions of Part 2.
Subjects will be admitted to the CRU on Day -1 and will fast overnight for at least 10 h.
Comparison of the PK parameters in the fed and fasted states will be performed, and analysis of PK by gender may be performed if the data allow.

NASH mice = experiment: NASH mouse model (streptozotocin and high fat diet), liver histology; assay type: in vivo
Excerpt: Non-alcoholic steatohepatitis (NASH) is characterized by lobular inflammation, hepatocyte ballooning and degeneration progressing to liver fibrosis. […] In addition, nine non-NASH mice were fed with a normal diet and monitored.

L929 cells [2] = experiment: Survival of L929 cells (MTT); assay type: cell-based; settings: 500 µM, 72 hrs
Protocol: Five thousand L929 cells were plated in completed DMEN and incubated until confluency for 3 days. Medium was removed and complete DMEM containg Prolin (20 µg/ml) and ascorbic acid (10 uM) was added. […] 100 µL of medium was removed, 20 µL MTT solution was added for 4 hrs, then 100 µl of DMSO was added, and absorbance of developed dark pink color was determined at […].

L929 cells [3] = experiment: TGF-induced collagen synthesis in L929 cells, 6-wells (SIRCOL); assay type: cell-based; settings: 500 µM
Protocol: 100,000 L929 cells were plated in complete DMEN and incubated until confluency for 3 days. Medium was removed and complete DMEM containg Prolin (20 µg/ml) and ascorbic acid (10 µM) was added. […] Cells were further incubated for 72 hrs. Supernatant was removed, cells were washed with cold PBS, 1 ml SIRCOL reagent was added onto the cells and cells were scraped off, samples were shaken for 5 h.at RT, centrifuged at 10.000 rpm for 5 min, supernatant was removed, pellet was dissolved in 0.5 M acetic acid to remove unbound dye, and re-centrifuged at 10.000 rpm for 5 min, supernatant was removed and final pelet was dissolved in 1 ml 0.5 M NaOH, shaken at RT for 5 h, 100 µl of resulted solution was placed in 96-well and O.D was determined at 600.

L929 cells [4] = experiment: TGF-induced collagen synthesis in L929 cells, 96-well plate format (SIRCOL); assay type: cell-based; settings: 500 µM
Protocol: Five thousand L929 cells were plated in complete DMEN and incubated until confluency for 3 days. Medium was removed and complete DMEM containg Prolin (20 µg/ml) and ascorbic acid (10 µM) was added. […] Cells were further incubated for 72 hrs. Supernatant was removed, 0.5% gluteraldehyde was added for 30 min at RT, removed, washed 3X with ddwater, 0.5 M acetic acid was added for 30 min at RT, removed, washed with water, air dried and 100 µl SIRCOL dye was added for 5 h at RT. Dye was removed, plate was washed extensively under running water, air dried and 200 µl of 0.5 M NaOH was added, plates were shaken at RT for 1 h, and OD was determined at 600 nm.

L929 cells [5] = experiment: TGF-induced soluble collagen synthesis in L929 cells (ELISA); assay type: cell-based; settings: 500 µM
Protocol: Five thousand L929 cells were plated in complete DMEN and incubated until confluency for 3 days. Medium was removed and complete DMEM containing Prolin (20 µg/ml) and ascorbic acid (10 µM) was added. […] Cells were further incubated for 72 hrs. 200 µl supernatant of 96-well SIRCOL plate was placed onto ELISA plate and incubated O/N. Next day, supernatant was removed and 100 ul of 1%BSA in PBST was added and incubated for 2 h at RT, BSA was removed, plate was washed 3x with 200 µl of PBST, and anti-collagen type I a.b was added at 1:2000 dilution (prepared in %1 BSA in PBST), incubated at RT for 1 h, primary a.b was removed, plate was washed 3x with 200 µl PBST, and secondary anti-goat HRP was added at 1:2000 dilution, incubate at RT for 1 h, removed, plate was washed 3x with 200 µl PBST and 100 µl of TMB solution was added for color development for 15 min, then 100 µl of 2 N H2SO4 was added to stop the reaction and O.D of developed yellow color was determined at 450 nm.

L929 cells [6] = experiment: TGF-induced soluble fibronectin synthesis in L929 cells (ELISA); assay type: cell-based; settings: 500 µM, in the absence and presence of TGF-β-induction
Excerpt: Fibronectin is another important component of fibrotic lungs as it is induced by TGF-β and functions both as a structural component of extra cellular matrix as well as well as a ligand for integrin receptors. Just like soluble collagen, binding of fibronectin to integrin receptors induces the proliferation of fibroblast and epithelial cells of the lungs.

[7] = tested on: mouse tail model of lymphedema; experiment: Mouse tail model of lymphedema; assay type: in vivo; settings: 400 mg/kg/day oral gavage once daily, by 5 weeks
[8] = human, in vivo, 48 h
Excerpt: Following screening, eligible healthy volunteer subjects were admitted to a single clinical study site and were randomized to 1 of 2 treatment sequences. […] In each period, a standardized breakfast was provided to subjects prior to administration of study drug (to compare the PK profiles in the clinically relevant fed state) and plasma samples were collected over a 48-hour period after dosing for evaluation of PK. Dosing between the 2 periods was separated by a minimum of 7 days. Subjects completed the study upon completion of the 48-hour post-dose assessments following dosing period 2.
All capsules were identical in size, shape, and external color.

[9] = human, in vivo
Protocol: All Part 1 cohorts will be dosed every 12 hours with food for 5 days.
During the treatment period (Day 1 through Day 5), participants will be administered their assigned study medication BID, every 12 h ± 0.25 h (with approximately 240 mL of non-carbonated water), 30 minutes after the start of consumption of their standardised breakfast or dinner (12 h apart). A standardised lunch will be served ≥ 4 h post breakfast and ≥ 4 h prior to dinner. An evening snack will be served ≥ 3 h following evening study medication administration. No additional fluids will be allowed during the 1 h pre- and post-doses. On Day 6, subjects will replicate mealtimes as scheduled on Day 1-5.
In Part 1, blood samples (4 mL each) for PK will be collected for Cohorts 1, 2, 3, 4, and 6 at specified times (hours) at each as follows: • Day 1 and Day 5: 0 (pre-dose), 0.5, 1, 1.5, 2, 2.5, 3, 3.5, 4, 6, 8, 12 (pre-dose), 13, 14, 15, 16, 18 h • Day 2, Day 3 and Day 4: 0 (pre-morning-dose) and 12 h (pre-evening-dose) • Day 6: 12, 18, 24 and 36 h post-last dose • Day 7: 48 h (post-last dose)
Pharmacokinetics for Day 1 to 3 in Part 2 (fed state) will be compared to PK for Day 1 to Day 3 in Part 2 (fasted state). Plasma PK parameters (non-compartmental or compartmental analysis as appropriate) will include, but are not limited to: • Following single dose: Tmax, tlag, Cmax, AUC0-4, AUC0-last, t½, AUC0-inf, lambda z, %AUCext, CL/F, Vz/F, Cmax/D, AUC0-last/D, AUC0-inf/D and MRT (D is dose) • After repeated doses: Ctrough, Ctrough/D • Following repeated doses on last day: Tmax, Cmax, Cavg, tlag, t½, AUC0-4, AUC0-last, AUC0-inf, lambda z, %AUCext, CLss/F, Vzss/F, MRT, PTF, Rac(AUC), Rac(Cmax), Cmax/D, AUClast/D, AUC0-inf/D and Rac (accumulation ratio)
All cohorts (n=6 each) were dosed every 12 hours with food for 5 days at either 100, 250, 500, or 750 mg BID. […] Following processing, the samples were analyzed by HPLC on a Phenomenex Luna PFP(2), 3 µm, 50 x 2.0 mm column, and the eluates were monitored by an API4000 MS/MS detector in positive MRM mode. The data were acquired and processed by the data acquisition system Analyst® (Sciex).

[10] = MAD study, safety and tolerability (adverse events)
Excerpt: All participants in Part 1 and Part 2 will be monitored for safety (including assessment of chemistry, haematology and urinalysis parameters, electrocardiograms [ECGs], vital signs and adverse events [AEs]) and samples will be collected for assessment of PK at predefined time points pre and post-dose as delineated in the Schedule of Events.
Safety and tolerability will be assessed throughout Part 1, Part 2 and Part 3 of the study by monitoring AEs, physical examination, vital signs, 12-lead ECGs, clinical laboratory values (haematology panel, multiphasic chemistry panel and urinalysis), and review of concomitant treatments/medication use.

[11] = male, Sprague Dawley, rat, in vivo, 28 days
Protocol: The protocol was amended to add additional TK male animals in Group 6 for Day 1 collection of TK samples at 875 mg/kg.
Blood samples were collected from 3 subsets of 3 animals/sex on Day 1 and Day 28 at predose, 0.25, 0.5, 1, 2, 4, 8 and 24 hours (hr) post-dose for groups 2 to 6 and from one subset of 3 animals/sex at 0.25 hr post-dose for the vehicle group (group 1). […] Non-compartmental analysis (NCA) of plasma concentration data was conducted using Phoenix® WinNonlin®, version 8.0.

[12] = 200 mg SD-559 (pirfenidone) BID, Huang et al.; in ng/mL; cited from earlier work

With `[2H]C([2H])([2H])c1ccc(=O)n(-c2ccccc2)c1` [LYT-100, deupirfenidone] the “AUC, % Change Fed vs Fasted” value ([1]; LYT-100 @500 mg single dose) was -19%, the “Cmax, % Change Fed vs Fasted” value ([1]; LYT-100 @500 mg single dose) was -23% and the “Tmax, % Change Fed vs Fasted” value ([1]; LYT-100 @500 mg single dose) was “+25%”. The “tolerability with or without food” value ([1]; single dose of 500 mg) was “no evidence of any tolerability concerns”, the “Fibrosis Area (%)” value (NASH mice; 30 mg/kg twice daily oral, 6-9 weeks of age, n=8, mean ± SD, p<0.01 vs Vehicle) was 0.64 ± 0.31 % and the “fibrosis area compared to the vehicle group” value (NASH mice; Sirius-red stained liver sections) was “significant reduction”. The “number of animals with Steatosis score 0” value (NASH mice; score 0 = <5%, n=8) was 4, the “number of animals with Steatosis score 1” value (NASH mice; score 1 = 5-33%, n=8) was 3 and the “number of animals with Lobular Inflammation score 1” value (NASH mice; score 1 = <2 foci/200x, n=8) was 5. For the same compound, the “number of animals with Lobular Inflammation score 2” value (NASH mice; score 2 = 2-4 foci/200x, n=8) was 3, the “number of animals with Steatosis score 2” value (NASH mice; score 2 = >33%-66%, n=8) was 1 and the “number of animals with Hepatocyte ballooning score 2” value (NASH mice; score 2 = Many cells/prominent ballooning, n=8) was 8. For the same compound, the “survival of L929 cells” value (L929 cells [2]) was “does not affect survival”, the “collagen synthesis in the absence of added TGF-β” value (L929 cells [3]) was “significantly inhibits” and the TGF-induced collagen synthesis (L929 cells [3]; TGF-β 5 ng/ml, 72 hrs) was “inhibits”. For the same compound, the “total collagen level in the absence of TGF-β induction” value (L929 cells [4]) was “signficantly inhibited or reduced”, the “TGF-β-induced total collagen levels” value (L929 cells [4]; TGF-β 5 ng/ml, 72 hrs) was “significanly inhibited or reduced” and the “soluble collagen levels in the absence of TGF-β-induction” value (L929 cells [5]) was “signficantly reduced”. For the same compound, the “TGF-β-induced soluble collagen levels” value (L929 cells [5]; TGF-β 5 ng/ml, 72 hrs) was “significantly inhibits”, the soluble fibronectin levels (L929 cells [6]) was “signficantly reduced” and the “swelling (tail volume) as compared to carboxymethylcellulose control” value [7] was “significantly reduced swelling”. For the same compound, the “tolerability of single doses” value [8] was “well tolerated”, the “dose dependence of AUC96-108” value [9] was “linear dose proportionality” and the “abdominal discomfort, AE across all cohorts” value [10] was 6.7%. The “abdominal distension, AE across all cohorts” value [10] was 10%, the “headache, AE across all cohorts” value [10] was 23.3% and the “nausea, AE across all cohorts” value [10] was 10%. The “Abdominal Distension, incidence of TEAE” value ([10]; 100 mg BID, N=6) was 0 n (%), the “Abdominal discomfort, incidence of TEAE” value ([10]; 100 mg BID, N=6) was 0 n (%) and the “Back pain, incidence of TEAE” value ([10]; 100 mg BID, N=6) was 1 (16.7%) n (%). The “Dysmenorrhoea, incidence of TEAE” value ([10]; 100 mg BID, N=6) was 0 n (%), the “Headache, incidence of TEAE” value ([10]; 100 mg BID, N=6) was 1 (16.7%) n (%) and the “Nausea, incidence of TEAE” value ([10]; 100 mg BID, N=6) was 0 n (%). For the same compound, the “Peripheral swelling, incidence of TEAE” value ([10]; 100 mg BID, N=6) was 0 n (%), the “Presyncope, incidence of TEAE” value ([10]; 100 mg BID, N=6) was 0 n (%) and the tolerability ([10]; 100 mg up through 1000 mg BID over 5 days) was “well-tolerated”. The “Abdominal Distension, incidence of TEAE” value ([10]; 250 mg BID, N=6) was 3 (50.0%) n (%), the “Abdominal discomfort, incidence of TEAE” value ([10]; 250 mg BID, N=6) was 0 n (%) and the “Back pain, incidence of TEAE” value ([10]; 250 mg BID, N=6) was 0 n (%). The “Dysmenorrhoea, incidence of TEAE” value ([10]; 250 mg BID, N=6) was 2 (33.3%) n (%), the “Headache, incidence of TEAE” value ([10]; 250 mg BID, N=6) was 2 (33.3%) n (%) and the “Nausea, incidence of TEAE” value ([10]; 250 mg BID, N=6) was 2 (33.3%) n (%). The “Peripheral swelling, incidence of TEAE” value ([10]; 250 mg BID, N=6) was 1 (16.7%) n (%), the “Presyncope, incidence of TEAE” value ([10]; 250 mg BID, N=6) was 1 (16.7%) n (%) and the “Abdominal Distension, incidence of TEAE” value ([10]; 500 mg BID, N=6) was 0 n (%). The “Abdominal discomfort, incidence of TEAE” value ([10]; 500 mg BID, N=6) was 0 n (%), the “Back pain, incidence of TEAE” value ([10]; 500 mg BID, N=6) was 2 (33.3%) n (%) and the “Dysmenorrhoea, incidence of TEAE” value ([10]; 500 mg BID, N=6) was 0 n (%). For the same compound, the “Headache, incidence of TEAE” value ([10]; 500 mg BID, N=6) was 2 (33.3%) n (%), the “Nausea, incidence of TEAE” value ([10]; 500 mg BID, N=6) was 1 (16.7%) n (%) and the “Peripheral swelling, incidence of TEAE” value ([10]; 500 mg BID, N=6) was 0 n (%). The “Presyncope, incidence of TEAE” value ([10]; 500 mg BID, N=6) was 0 n (%), the “Abdominal Distension, incidence of TEAE” value ([10]; 750 mg BID, N=6) was 0 n (%) and the “Abdominal discomfort, incidence of TEAE” value ([10]; 750 mg BID, N=6) was 2 (33.3%) n (%). The “Back pain, incidence of TEAE” value ([10]; 750 mg BID, N=6) was 0 n (%), the “Dysmenorrhoea, incidence of TEAE” value ([10]; 750 mg BID, N=6) was 0 n (%) and the “Headache, incidence of TEAE” value ([10]; 750 mg BID, N=6) was 2 (33.3%) n (%). The “Nausea, incidence of TEAE” value ([10]; 750 mg BID, N=6) was 1 (16.7%) n (%), the “Peripheral swelling, incidence of TEAE” value ([10]; 750 mg BID, N=6) was 0 n (%) and the “Presyncope, incidence of TEAE” value ([10]; 750 mg BID, N=6) was 0 n (%). The “Abdominal Distension, incidence of TEAE” value ([10]; 1000 mg BID, N=6) was 1 (16.7%) n (%), the “Abdominal discomfort, incidence of TEAE” value ([10]; 1000 mg BID, N=6) was 0 n (%) and the “Back pain, incidence of TEAE” value ([10]; 1000 mg BID, N=6) was 0 n (%). For the same compound, the “Dysmenorrhoea, incidence of TEAE” value ([10]; 1000 mg BID, N=6) was 0 n (%), the “Headache, incidence of TEAE” value ([10]; 1000 mg BID, N=6) was 2 (33.3%) n (%) and the “Nausea, incidence of TEAE” value ([10]; 1000 mg BID, N=6) was 0 n (%). For the same compound, the “Peripheral swelling, incidence of TEAE” value ([10]; 1000 mg BID, N=6) was 1 (16.7%) n (%), the “Presyncope, incidence of TEAE” value ([10]; 1000 mg BID, N=6) was 1 (16.7%) n (%) and the “participants with TEAEs considered at least possibly treatment-related” value ([10]; 15 of 30 participants treated with LYT-100) was 50.0%. For the same compound, the dose-limiting toxicities ([10]; 100 to 1000 mg BID, 5 days) was “No dose-limiting toxicities were observed”, the maximum tolerated dose ([10]; 100 to 1000 mg BID, 5 days) was “No maximum tolerated dose was reached; also recorded: no maximally tolerated dose was reached” and the “severity of adverse events at all doses” value ([10]; MAD study) was “mild and transient”. The “Abdominal Distension, incidence of TEAE” value ([10]; Overall LYT-100, N=30) was 4 (13.3%) n (%), the “Abdominal discomfort, incidence of TEAE” value ([10]; Overall LYT-100, N=30) was 2 (6.7%) n (%) and the “Back pain, incidence of TEAE” value ([10]; Overall LYT-100, N=30) was 3 (10.0%) n (%). The “Dysmenorrhoea, incidence of TEAE” value ([10]; Overall LYT-100, N=30) was 2 (6.7%) n (%), the “Headache, incidence of TEAE” value ([10]; Overall LYT-100, N=30) was 9 (30.0%) n (%) and the “Nausea, incidence of TEAE” value ([10]; Overall LYT-100, N=30) was 4 (13.3%) n (%). The “Peripheral swelling, incidence of TEAE” value ([10]; Overall LYT-100, N=30) was 2 (6.7%) n (%) and the “Presyncope, incidence of TEAE” value ([10]; Overall LYT-100, N=30) was 2 (6.7%) n (%).
In the case of `O=C(O)c1ccc(=O)n(-c2ccccc2)c1` [LYT-105, 5-carboxy-pirfenidone], the “change in Cmax, AUC, fed vs fasted” value ([1]; 5-carboxypirfenidone after LYT-100 500 mg) is reported as less than 5%, the “average ratio of metabolite to the parent (M/P) by AUC” value [9] is reported as 0.45 and the “dose dependence of AUC96-108” value [9] is reported as “linear dose proportionality”. The “exposure in rats relative to humans” value [11] was roughly 7 fold and the “observed Cmax” value [12] was 1476.
